Test results from PMC3541007 (ChemMedChem, 2009).
Values joined by “and” are separate entries in the source; they are usually repeats but may differ in a detail not shown here. Equal entries are not always repeated. Where two headings read alike, the source gives them in different places.

Key:
[1] = tested on: M. tuberculosis clinical isolate 12081; type: cell-based; settings: for MIC clinical isolate 12081: multi-drug resistant isolate, four weeks
[2] = tested on: M. tuberculosis H37Rv inhA (S94A); type: cell-based, Mycobacterium tuberculosis
[3] = tested on: M. tuberculosis clinical isolate 5071; type: cell-based; settings: multi-drug resistant isolate, four weeks
[4] = tested on: M. tuberculosis H37Rv ΔkatG; type: cell-based, Mycobacterium tuberculosis

Molecule	MIC clinical isolate 12081 [1]	MIC clinical isolate 12081 ([1]; value in parentheses)	MIC H37Rv inhA (S94A) [2]	MIC clinical isolate 5071 [3]	MIC clinical isolate 5071 ([3]; value in parentheses)	fold resistance of strain 12081 ([1]; MIC ratio vs wild-type strain)	fold loss in potency versus InhA(S94A) strain compared to wild-type [2]	times less active against the ΔkatG mutant [4]
5-n-butyltriclosan [Compound 10]	37 µg/mL	120 µM	37 (120) µg/ml and 37 (120) µM	4.7 µg/mL	15 µM			
NNC(=O)c1ccncc1 [INH, isoniazid]			0.50 (3.6) µg/ml and 0.50 (3.6) µM			17 fold	8 fold	more than 3000 times
